Changes are numbered by the printed parent chain.

In test [1] the target is T1, wild type HilD (Salmonella typhimurium, UniProt P0CL08).
T1 construct: made in house; host or cells: E. coli BL21 (DE3)
T1 sequence (P0CL08 1-309): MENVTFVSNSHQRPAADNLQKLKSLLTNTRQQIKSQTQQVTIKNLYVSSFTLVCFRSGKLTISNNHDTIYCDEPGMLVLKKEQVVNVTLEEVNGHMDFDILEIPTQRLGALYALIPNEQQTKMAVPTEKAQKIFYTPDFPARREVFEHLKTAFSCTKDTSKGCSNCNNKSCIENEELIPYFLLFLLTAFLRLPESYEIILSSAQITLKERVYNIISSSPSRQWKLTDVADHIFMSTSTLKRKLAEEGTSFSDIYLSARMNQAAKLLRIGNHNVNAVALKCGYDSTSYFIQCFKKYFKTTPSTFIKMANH
Description: EMSA of hilA promoter DNA with wild type HilD. The test is classed as biochemical. Particulars: wild type HilD 150 nM; 10 nM hilA promoter DNA; increasing concentrations or 30 μM fatty acid. The method, then:
(§1) These were performed as previously described. Briefly, 10 nM hilA promoter DNA (-286 to +31) was mixed with 150 nM HilD in a binding buffer (100 mM Tris pH 7.5, 10 mM EDTA, 1M KCl, 1 mM DTT, 50% v/v glycerol). Fatty acids or control solvents were added at various concentrations. Binding reaction was performed at room temperature for 1 hour. Dye solution was added to final concentration of 1X and samples were separated on 10% acrylamide gels. DNA was stained using SYBR Safe and visualized in BioRad GelDoc imaging system.

The next test concerns the target T2, HilD (Salmonella typhimurium, UniProt P0CL08, R267A).
T2 construct: hilD with a C-terminal 3XFLAG tag was cloned into pWSK29 under control of the tetRA promoter; expressed in transfected cells; host or cells: Salmonella Typhimurium strain carrying pWSK29-PtetRA-hilD-3XFLAG (background with chromosomal hilD, hilC and rtsA null)
T2 sequence (P0CL08 1-309 R267A): T1 sequence (P0CL08 1-309) with R267A
Description: HilD half-life (degradation) assay by western blot. As to conditions: HilD R267A-3XFLAG; 20 μM fatty acid. The test is classed as cell-based. The method, then:
The HilD half-life was assessed as previously described. Salmonella strains having plasmids with tetracycline-inducible hilD or its mutated sequence with a C-terminal 3XFLAG tag and a sipB::lacZ fusion (for invasion gene expression assessment) were grown overnight and then diluted 1:100 into LB buffered with 100 mM MOPS (pH 6.7) with appropriate antibiotics and fatty acids or control solvents. After 2 hours of growth, aliquots were collected to quantitate sipB::lacZ expression in a β-galactosidase assay. Individual cultures were then equilibrated to an OD600 of 1.0 to ensure equal density at the half-life assay beginning point. New protein production was halted by addition of a cocktail of antibiotics (rifampin, streptomycin and spectinomycin). These cultures were incubated at 37°C and aliquots were collected every 30 minutes for 2 hours. Samples were lysed in 5X sample buffer, boiled, and immunoblotted with an anti-FLAG antibody to monitor HilD.
For orientation: Immunoblotting shows a protein as a band on a membrane.

The target in test [2] is T1, wild type HilD. Description: ELISA binding of fatty acid to wild type HilD. As to conditions: plates pre-adsorbed with 10 μM fatty acid, non-linear regression. The method, then: hilD or its mutated sequences were amplified and cloned into pET15b(+) under an N-terminal 6xHis tag. The constructs were transformed into E. coli BL21 (DE3) for expression. Transformants were induced with 5 mM IPTG for 4 hours. Cultures were centrifuged, lysed and treated with TALON beads as described above. Bound protein was eluted by applying 1 ml elution buffer to the columns. Elution was confirmed by SDS-PAGE. Following confirmation, eluted samples were dialyzed overnight in dialysis buffer (50 mM sodium phosphate, 300 mM NaCl, 10% glycerol). Protein concentration and quality were assessed by Bradford estimation and SDS-PAGE.
96-well polystyrene plates were coated with 10 μM fatty acid in coating buffer (0.05 M sodium carbonate-bicarbonate, pH 9.3) and incubated overnight at 4°C. Wells were washed three times with PBS, followed by addition of blocking buffer (1% Ficoll 400 in PBS). After blocking, wells were washed three times with PBS, and different concentrations of proteins in blocking buffer were added and incubated at room temperature for 2 hours. […] After color development, reaction was stopped with 1N sulfuric acid and read spectrophotometrically at 490 nm. Binding was analyzed in GraphPad Prism.
All experiments were repeated twice and data of representative experiment have been shown. Kd was calculated by using Total One-Site binding in GraphPad Prism. […]
(In general: An ELISA detects its analyte on a solid surface through an enzyme-linked reagent.)

A further test concerns the target T3, HilD^N44A (Salmonella typhimurium, UniProt P0CL08, N44A).
T3 construct: made in house; host or cells: E. coli BL21 (DE3)
T3 sequence (P0CL08 1-309 N44A): T1 sequence (P0CL08 1-309) with N44A
Description: EMSA of hilA promoter DNA with HilD N44A. It is filed as biochemical. Particulars: 10 nM hilA promoter DNA, 30 μM fatty acid. The procedure: as §1

`CCCCCCCCCCCCC/C=C\C(=O)O` [c2-HDA, cis-2-hexadecenoic acid]: the “effect on HilD binding to hilA promoter DNA” value at wild type HilD [1] was “progressively impaired interaction of wild type HilD with the DNA target”; on HilD^N44A it was “retained its binding of target DNA”. In addition, the HilD degradation result on HilD is on record as “protected from degradation”. In addition, binding on wild type HilD [2] was characterised by a dissociation constant (Kd) of 3.5 µM.

Regarding `CCCCCCCCCCCCC/C=C/C(=O)O` [t2-HDA, trans-2-hexadecenoic acid], the “effect on HilD binding to hilA promoter DNA” value is “efficiently reduced the DNA binding capacity” at wild type HilD [1] and “did not disrupt DNA binding” at HilD^N44A. The HilD degradation entry at HilD is given as “escaped degradation”. Further, the affinity on wild type HilD [2], expressed as Kd, was 9.8 µM.

The values above are taken from article PMC7932555, “A diffusible signal factor of the intestine dictates Salmonella invasion through its direct control of the virulence activator HilD” (PLoS Pathogens, 2021).
